Reference: patent US20020155443A1, “Metal binding DNA interactive compounds” (priority 2000, published 2002)
pIC50: −log10 of the molar value.

Experiments:
Format in all cases: cell-based
786-0 = assay: DTP Human Tumor Cell Line Screen, sulforhodamine B assay; settings: Renal Cancer, 48 h
Method: (§1) The growth inhibitory activity of propargylic sulfone 3.2 against a wide range of human cancer cell lines was determined calorimetrically with sulforhodamine B assay conducted by the National Cancer Institute of the National Institutes of Health.
(§2) The in vitro cytotoxicity of compounds 2.47, 2.48 and 3.2 were investigated using the DTP Human Tumor Cell Line Screen. The concept, rationale and history of development of the DTP Human Tumor Cell Line Screen were described by Boyd (1993;1997)^8.4, 8.6 and Boyd and Paull (1995)^8.5. Further technical details of the NCI screening procedures were described (Monks, et. al.)^8.2 as were the origins and processing of the cell lines (Alley, et. al., Shoemaker, et. al., Stinson, et. al.). Briefly, cell suspensions that were diluted according to the particular cell type and the expected target cell density (5000-40,000 cells per well based on cell growth characteristics) were added by pipet (100 μL) into 96-well microtiter plates. Inoculates were allowed a preincubation period of 24 h at 37° C. for stabilization. Dilutions at twice the intended test concentration were added at time zero in 100-μL aliquots to the microtiter plate wells. Usually, test compounds were evaluated at five 10-fold dilutions. In routine testing, the highest well concentration is 10E-4 M, but for the standard agents the highest well concentration used depended on the agent. Incubations lasted for 48 h in 5% CO2 atmosphere and 100% humidity. The cells were assayed by using the sulforhodamine B assay (Rubinstein, et. al., Skehan, et. al.). A plate reader was used to read the optical densities, and a microcomputer processed the optical densities into the special concentration parameters.

A498 = assay: as above; settings: Renal Cancer, 48 h
Method: as §1, §2

ACHN = assay: as above; settings: Renal Cancer, 48 h
Method: as §1, §2

CAKI-1 = assay: as above; settings: Renal Cancer, 48 h
Method: as §1, §2

COLO 205 = assay: as above; settings: Colon Cancer, 48 h
Method: as §1, §2

HCC-2998 = assay: as above; settings: Colon Cancer, 48 h
Method: as §1, §2

HCT-116 = assay: as above; settings: Colon Cancer, 48 h
Method: as §1, §2

HCT-15 = assay: as above; settings: Colon Cancer, 48 h
Method: as §1, §2

HL-60 (TB) = assay: as above; settings: Leukemia, 48 h
Method: as §1, §2

HOP-92 = assay: as above; settings: Non-Small Cell Lung Cancer, 48 h
Method: as §1, §2

HS 578T = assay: as above; settings: Breast Cancer, 48 h
Method: as §1, §2

HT29 = assay: as above; settings: 48 h
Method: as §1, §2

IGROV1 = assay: as above; settings: 48 h
Method: as §1, §2

K-562 = assay: as above; settings: 48 h
Method: as §1, §2

KM12 = assay: as above; settings: Colon Cancer, 48 h
Method: as §1, §2

LOX IMVI = assay: as above; settings: Melanoma, 48 h
Method: as §1, §2

MALME-3M = assay: as above; settings: Melanoma, 48 h
Method: as §1, §2

MCF7/ADR-RES = assay: as above; settings: Breast Cancer, 48 h
Method: as §1, §2

MCF7 = assay: as above; settings: Breast Cancer, 48 h
Method: as §1, §2

MDA-MB-435 = assay: as above; settings: Breast Cancer, 48 h
Method: as §1, §2

MDA-N = assay: as above; settings: Breast Cancer, 48 h
Method: as §1, §2

NCI-H226 = assay: as above; settings: Non-Small Cell Lung Cancer, 48 h
Method: as §1, §2

NCI-H460 = assay: as above; settings: Non-Small Cell Lung Cancer, 48 h
Method: as §1, §2

OVCAR-4 = assay: as above; settings: Ovarian Cancer, 48 h
Method: as §1, §2

PC-3 = assay: as above; settings: Prostate Cancer, 48 h
Method: as §1, §2

SF-268 = assay: as above; settings: CNS Cancer, 48 h
Method: as §1, §2

SF-539 = assay: as above; settings: CNS Cancer, 48 h
Method: as §1, §2

SK-MEL-28 = assay: as above; settings: Melanoma, 48 h
Method: as §1, §2

SK-MEL-2 = assay: as above; settings: Melanoma, 48 h
Method: as §1, §2

SK-MEL-5 = assay: as above; settings: Melanoma, 48 h
Method: as §1, §2

SK-OV-3 = assay: as above; settings: Ovarian Cancer, 48 h
Method: as §1, §2

SN12C = assay: as above; settings: Renal Cancer, 48 h
Method: as §1, §2

SNB-75 = assay: as above; settings: CNS Cancer, 48 h
Method: as §1, §2

SR = assay: as above; settings: Leukemia, 48 h
Method: as §1, §2

SW-620 = assay: as above; settings: Colon Cancer, 48 h
Method: as §1, §2

TK-10 = assay: as above; settings: Renal Cancer, 48 h
Method: as §1, §2

UACC-257 = assay: as above; settings: Melanoma, 48 h
Method: as §1, §2

UACC-62 = assay: as above; settings: Melanoma, 48 h
Method: as §1, §2

human cancer cell lines = assay: Growth inhibition across the human cancer cell line panel (overall statement); settings: wide range of human cancer cell lines, in words
Method: The growth inhibitory activities of bis(propargylic) sulfone crown ethers 2.47 and 2.48 against B16 murine melanoma cells were determined calorimetrically with an MTT assay conducted by the Institute for Drug Development at the Cancer Research and Therapy Center in San Antonio, Tex.
as §1, §2

## O=S1(=O)CC#CCOCCOCCOCCOCCOCCOCC#CC1 [Compound 2.47]
786-0
  pIC50: 4.96
A498
  pIC50: 4.77
ACHN
  pIC50: 4.87
CAKI-1
  pIC50: 4.91
COLO 205
  pIC50: 5.14
HCC-2998
  pIC50: 4.72
HCT-116
  pIC50: 5.09
HCT-15
  pIC50: 4.81
HL-60 (TB)
  pIC50: 4.87
HOP-92
  pIC50: 4.96
HS 578T
  pIC50: 4.39
HT29; Colon Cancer
  pIC50: 4.86
IGROV1; Ovarian Cancer
  pIC50: 4.79
K-562; Leukemia
  pIC50: 4.95
KM12
  pIC50: 4.79
LOX IMVI
  pIC50: 4.95
MALME-3M
  pIC50: 5.57
MCF7/ADR-RES
  pIC50: 4.59
MCF7
  pIC50: 5.00
MDA-MB-435
  pIC50: 4.88
MDA-N
  pIC50: 4.85
NCI-H226
  pIC50: 4.40
NCI-H460
  pIC50: 4.71
OVCAR-4
  pIC50: 4.70
PC-3
  pIC50: 4.73
SF-268
  pIC50: 4.62
SF-539
  pIC50: 4.95
SK-MEL-28
  pIC50: 4.72
SK-MEL-2
  pIC50: 4.79
SK-MEL-5
  pIC50: 4.77
SK-OV-3
  pIC50: 4.44
SN12C
  pIC50: 4.88
SNB-75
  pIC50: 4.70
SR
  pIC50: 5.09
SW-620
  pIC50: 4.98
TK-10
  pIC50: 4.86
UACC-257
  pIC50: 4.94
UACC-62
  pIC50: 6.55
Human cancer cell lines
  growth inhibitory properties against human cancer cell lines: display growth inhibitory properties

## O=S1(=O)CC#CCOCCOCCOCCOCCOCCOCCOCC#CC1 [Compound 2.48]
786-0
  pIC50: 4.74
A498
  pIC50: 4.26
ACHN
  pIC50: 4.65
CAKI-1
  pIC50: 4.67
COLO 205
  pIC50: 4.83
HCC-2998
  pIC50: 4.75
HCT-116
  pIC50: 4.82
HCT-15
  pIC50: 4.49
HL-60 (TB)
  pIC50: 4.68
HOP-92
  pIC50: 4.71
HS 578T
  pIC50: 4.28
HT29; Colon Cancer
  pIC50: 4.73
IGROV1; Ovarian Cancer
  pIC50: 4.35
K-562; Leukemia
  pIC50: 4.62
KM12
  pIC50: 4.68
LOX IMVI
  pIC50: 4.70
MALME-3M
  pIC50: 4.84
MCF7/ADR-RES
  pIC50: < 4.00
MCF7
  pIC50: 4.66
MDA-MB-435
  pIC50: 4.69
MDA-N
  pIC50: 4.72
NCI-H226
  pIC50: 4.06
NCI-H460
  pIC50: 4.42
OVCAR-4
  pIC50: 4.56
PC-3
  pIC50: 4.36
SF-268
  pIC50: 4.52
SF-539
  pIC50: 4.58
SK-MEL-28
  pIC50: 4.75
SK-MEL-2
  pIC50: 4.76
SK-MEL-5
  pIC50: 4.74
SK-OV-3
  pIC50: 4.49
SN12C
  pIC50: 4.73
SNB-75
  pIC50: 4.49
SR
  pIC50: 4.72
SW-620
  pIC50: 4.84
TK-10
  pIC50: 4.64
UACC-257
  pIC50: 4.67
UACC-62
  pIC50: 4.77
Human cancer cell lines
  growth inhibitory properties against human cancer cell lines: display growth inhibitory properties

## O=C(OCC1COCCOCCOCCOCCO1)c1ccc(CS(=O)(=O)CC#CCO)cc1 (stereo not drawn) [Compound 3.2]
786-0; Homo sapiens
  pIC50: 4.45
A498; Homo sapiens
  pIC50: < 4.00
ACHN; Homo sapiens
  pIC50: < 4.00
CAKI-1; Homo sapiens
  pIC50: < 4.00
COLO 205; Homo sapiens
  pIC50: < 4.00
HCC-2998; Homo sapiens
  pIC50: < 4.00
HCT-116; Homo sapiens
  pIC50: < 4.00
HCT-15; Homo sapiens
  pIC50: < 4.00
HL-60 (TB); Homo sapiens
  pIC50: < 4.00
HOP-92; Homo sapiens
  pIC50: 4.38
HS 578T; Homo sapiens
  pIC50: 4.10
HT29; Homo sapiens, HT-29, Colon Cancer
  pIC50: < 4.00
IGROV1; Homo sapiens, IGROV-1, Ovarian Cancer
  pIC50: < 4.00
K-562; Homo sapiens, K562, Leukemia
  pIC50: 4.43
KM12; Homo sapiens
  pIC50: < 4.00
LOX IMVI; Homo sapiens
  pIC50: 4.27
MALME-3M; Homo sapiens
  pIC50: < 4.00
MCF7/ADR-RES; Homo sapiens
  pIC50: < 4.00
MCF7; Homo sapiens
  pIC50: < 4.00
MDA-MB-435; Homo sapiens
  pIC50: < 4.00
MDA-N; Homo sapiens
  pIC50: 4.43
NCI-H226; Homo sapiens
  pIC50: < 4.00
NCI-H460; Homo sapiens
  pIC50: < 4.00
OVCAR-4; Homo sapiens
  pIC50: < 4.00
PC-3; Homo sapiens
  pIC50: < 4.00
SF-268; Homo sapiens
  pIC50: < 4.00
SF-539; Homo sapiens
  pIC50: 4.33
SK-MEL-28; Homo sapiens
  pIC50: < 4.00
SK-MEL-2; Homo sapiens
  pIC50: 4.01
SK-MEL-5; Homo sapiens
  pIC50: < 4.00
SK-OV-3; Homo sapiens
  pIC50: < 4.00
SN12C; Homo sapiens
  pIC50: 4.52
SNB-75; Homo sapiens
  pIC50: < 4.00
SR; Homo sapiens
  pIC50: < 4.00
SW-620; Homo sapiens
  pIC50: 4.17
TK-10; Homo sapiens
  pIC50: < 4.00
UACC-257; Homo sapiens
  pIC50: < 4.00
UACC-62; Homo sapiens
  pIC50: 4.08
Human cancer cell lines
  growth inhibitory properties against human cancer cell lines: modest growth inhibitory properties
